Experimental data reported in ChEMBL document CHEMBL5331108, “Design and Synthesis of 4-Fluorophenyl-5-methylene-2(5H)-furanone Derivatives as Potent Quorum Sensing Inhibitors” (J Med Chem, 2023).
≈ marks a conversion by molar mass, not a printed value. Calls of active or inactive are those of the source. No cut-off for these calls is given here.

Assays:
Pseudomonas aeruginosa [1] = test: Antibacterial activity against penicillin-susceptible Pseudomonas aeruginosa ATCC27853 assessed as inhibition of bacterial growth incubated for 20 hrs by CLSI protocol based microdilution method; format: functional
Pseudomonas aeruginosa [2] = test: Antibacterial activity against wild type Pseudomonas aeruginosa […] CGMCC1.12483 assessed as inhibition of bacterial growth incubated for 20 hrs by CLSI protocol based microdilution method; format: functional
Bacillus pumilus = test: Antibacterial activity against penicillin-susceptible Bacillus pumilus CMCC63202 assessed as inhibition of bacterial growth incubated for 20 hrs by CLSI protocol based microdilution method; format: functional
Bacillus subtilis = test: Antibacterial activity against penicillin-susceptible Bacillus subtilis ATCC9372 assessed as inhibition of bacterial growth incubated for 20 hrs by CLSI protocol based microdilution method; format: functional
Staphylococcus aureus [3] = test: Antibacterial activity against methicillin-resistant Staphylococcus aureus ATCC43300 assessed as inhibition of bacterial growth incubated for 20 hrs by CLSI protocol based microdilution method; format: functional
Escherichia coli = test: Antibacterial activity against penicillin-susceptible Escherichia coli ATCC25922 assessed as inhibition of bacterial growth incubated for 20 hrs by CLSI protocol based microdilution method; format: functional
Staphylococcus aureus [4] = test: Antibacterial activity against erthromycin-susceptible Staphylococcus aureus ATCC25923 assessed as inhibition of bacterial growth incubated for 20 hrs by CLSI protocol based microdilution method; format: functional
[5] = Inhibition of quorum sensing system in Pseudomonas aeruginosa PAO1 assessed as inhibition of pyocyanin production at 102.4 ug/ml incubated for 18 hrs by absorbance based assay; conditions: dose 102.4 µg/ml
[6] = Inhibition of quorum sensing system in Pseudomonas aeruginosa PAO1 assessed as inhibition of rhamnolipid production at 102.4 ug/ml incubated for 24 hrs by absorbance based assay; conditions: dose 102.4 µg/ml
Pseudomonas aeruginosa [7] = test: Antibacterial activity against Pseudomonas aeruginosa PAO1 assessed as inhibition of bacterial growth at 256 ug/ml measured after 25 hrs by absorbance based assay; format: functional, organism-based; conditions: dose 256.0 µg/ml
Pseudomonas aeruginosa [8] = test: Inhibition of biofilm formation in Pseudomonas aeruginosa PAO1 at 32 ug/ml incubated for 20 hrs by crystal violet staining based analysis; format: functional; conditions: dose 32.0 µg/ml
Pseudomonas aeruginosa [9] = test: Antibacterial activity against Pseudomonas aeruginosa 27853 assessed as inhibition of bacterial growth at 256 ug/ml measured after 25 hrs by absorbance based assay; format: functional, organism-based; conditions: dose 256.0 µg/ml

| SMILES | MIC (Pseudomonas aeruginosa [1]) [µg/mL] | MIC (Pseudomonas aeruginosa [2]) [µg/mL] | MIC (Bacillus pumilus) [µg/mL] | MIC (Bacillus subtilis) [µg/mL] | MIC (Staphylococcus aureus [3]) [µg/mL] | MIC (Escherichia coli) [µg/mL] | MIC (Staphylococcus aureus [4]) [µg/mL] | inhibition [5] | inhibition [6] [%] | Activity (Pseudomonas aeruginosa [7]) | inhibition (Pseudomonas aeruginosa [8]) | Activity (Pseudomonas aeruginosa [9]) |
| --- | --- | --- | --- | --- | --- | --- | --- | --- | --- | --- | --- | --- |
| C=C1OC(=O)C(CNC(=O)CC)=C1c1ccc(F)cc1 | > 512 | 512 (≈ 1860 µM) | 256 (≈ 930 µM) | 512 (≈ 1860 µM) | 256 (≈ 930 µM) | > 512 | 128 (≈ 465 µM) |  |  |  |  |  |
| C=C1OC(=O)C(CNC(=O)c2ccccc2F)=C1c1ccc(F)cc1 | > 512 | > 512 | > 512 | > 512 | 128 (≈ 375 µM) | > 512 | > 512 |  |  |  |  |  |
| C=C1OC(=O)C(CNC(=O)c2ccc(C)cc2)=C1c1ccc(-c2ccccc2)cc1 | > 512 | > 512 | > 512 | > 512 | > 512 | > 512 | > 512 |  |  |  |  |  |
| C=C1OC(=O)C(CNC(=O)Cc2ccccc2)=C1c1ccc(F)cc1 | > 512 | > 512 | > 512 | > 512 | > 512 | > 512 | > 512 | inactive |  |  |  |  |
| C=C1OC(=O)C(CNC(=O)c2ccc(C)cc2)=C1c1cccc(Br)c1 | > 512 | > 512 | > 512 | > 512 | > 512 | > 512 | > 512 |  |  |  |  |  |
| C=C1OC(=O)C(CNC(=O)CCCCCCCCC)=C1c1ccc(F)cc1 | > 512 | > 512 | > 512 | > 512 | 512 (≈ 1370 µM) | > 512 | > 512 |  |  |  |  |  |
| C=C1OC(=O)C(CNC(=O)c2ccc(C)cc2)=C1c1cccc(F)c1 | > 512 | > 512 | > 512 | > 512 | > 512 | > 512 | > 512 |  |  |  |  |  |
| O=C1C=C(Br)/C(=C/Br)O1 | 256 (≈ 1010 µM) | 128 (≈ 504 µM) | 256 (≈ 1010 µM) | 64 (≈ 252 µM) | 128 (≈ 504 µM) | 256 (≈ 1010 µM) | 32 (≈ 126 µM) |  | 44.9 | Active | Active | Active |
| C=C1C(c2ccc(F)cc2)=C(CNC(=O)c2ccc(C)cc2)C(=O)N1CCCCC | > 512 | 512 (≈ 1260 µM) | 512 (≈ 1260 µM) | > 512 | > 512 | > 512 | > 512 |  |  |  |  |  |
| C=C1OC(=O)C(CNC(=O)CCCCCCC)=C1c1ccc(F)cc1 | > 512 | > 512 | > 512 | > 512 | > 512 | > 512 | > 512 |  |  |  |  |  |
| C=C1OC(=O)C(CNC(=O)c2ccc(C)cc2)=C1c1ccc(Br)cc1 | > 512 | > 512 | > 512 | > 512 | > 512 | > 512 | > 512 |  |  |  |  |  |
| C=C1OC(=O)C(CNC(=O)c2ccccc2C)=C1c1ccc(F)cc1 | > 512 | > 512 | 32 (≈ 94.9 µM) | 128 (≈ 379 µM) | 64 (≈ 190 µM) | > 512 | 32 (≈ 94.9 µM) |  |  |  |  |  |
| C=C1OC(=O)C(CNC(=O)c2ccc(C)cc2)=C1c1ccccc1 | > 512 | > 512 | > 512 | > 512 | > 512 | > 512 | > 512 |  |  |  |  |  |
| C=C1OC(=O)C(CNC(=O)c2ccccc2Cl)=C1c1ccc(F)cc1 | > 512 | > 512 | > 512 | > 512 | > 512 | > 512 | > 512 |  |  |  |  |  |
| C=C1C(c2ccc(F)cc2)=C(CNC(=O)c2ccc(C)cc2)C(=O)N1C1CCCC1 | > 512 | 512 (≈ 1270 µM) | 512 (≈ 1270 µM) | > 512 | 512 (≈ 1270 µM) | > 512 | > 512 |  |  |  |  |  |
| C=C1C(c2ccc(F)cc2)=C(CNC(=O)c2ccc(C)cc2)C(=O)N1c1ccccc1Cl | > 512 | 512 (≈ 1150 µM) | 512 (≈ 1150 µM) | > 512 | > 512 | > 512 | > 512 |  |  |  |  |  |
| C=C1OC(=O)C(CNC(=O)CCCC)=C1c1ccc(F)cc1 | > 512 | > 512 | 16 (≈ 52.7 µM) | 32 (≈ 105 µM) | 32 (≈ 105 µM) | > 512 | 4 (≈ 13.2 µM) |  |  |  |  |  |
| C=C1OC(=O)C(CNC(=O)CCc2ccccc2)=C1c1ccc(F)cc1 | > 512 | 512 (≈ 1460 µM) | > 512 | 64 (≈ 182 µM) | 16 (≈ 45.5 µM) | > 512 | > 512 | inactive |  |  |  |  |
